Reference: the supplement of paper PMC8671470

Columns and labels:
Conditions in all cases: 72 h
HL-60 = assay: area under dose-response curve (viability, 1 nM-10 uM) (fraction (0-1)); higher = more sensitive
How it was run: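 Area under the curve, where listed, was derived from four-parameter log-logistic fits with drc and PharmacoGx. These fits used CellTiter-Glo viability from HL-60 cells in RPMI 1640 with 10% FBS, normalised to DMSO wells and wells holding 10 μM proteasome inhibitor. The full library was rescreened on 384-well plates in duplicate at five tenfold concentrations, 1–10,000 nM, with DMSO or 100 nM of one of three metabolic inhibitors, for 72 h at 37 °C, 5% CO2.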

HEL = assay: cell viability (% survival relative to DMSO control, bortezomib = 0%); higher = less cytotoxic
How it was run: (§1)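 Fifteen myeloid leukaemia cell lines (10 AML, 5 CML) were seeded at a density titrated to the linear growth range. They went into 384-well plates with compounds pre-printed at 1, 10, 100, 1000 or 10000 nM in duplicate. After 72 h at 37 °C with 5% CO2, viability was read by CellTiter-Glo luminescence. Values are percent survival, with vehicle set to 100% and a 10 µM positive control to 0%, averaged over the duplicates.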

KCL-22 = assay: as above
How it was run: as §1

[1] = co-treatment: GSK2194069 100 nM
[2] = co-treatment: pictilisib 100 nM

SMILES	area under dose-response curve (HL-60; co-treatment: AZD3965 100 nM)	area under dose-response curve (HL-60; co-treatment: DMSO vehicle)	area under dose-response curve (HL-60; [1])	area under dose-response curve (HL-60; [2])	cell viability (HEL; 1 nM) [%]	cell viability (HEL; 10 nM) [%]	cell viability (HEL; 100 nM) [%]	cell viability (HEL; 1000 nM) [%]	cell viability (HEL; 10000 nM) [%]	cell viability (KCL-22; 1 nM) [%]	cell viability (KCL-22; 10 nM) [%]	cell viability (KCL-22; 100 nM) [%]	cell viability (KCL-22; 1000 nM) [%]	cell viability (KCL-22; 10000 nM) [%]
O=c1c2ccccc2[se]n1-c1ccccc1 [Ebselen]	< 0.0301	< 0.0301	< 0.0301	< 0.0301	102	97.3	106	96.5	81.8	103	97.8	104	96.5	93.1
C#Cc1cnc(O)nc1O [Eniluracil]	< 0.0301	< 0.0301	< 0.0301	< 0.0301	100	92.2	118	90.1	106	109	115	113	104	113
CC(/C=C1\SC(=S)N(CC(=O)O)C1=O)=C\c1ccccc1 [Epalrestat]	< 0.0301	< 0.0301	< 0.0301	< 0.0301	120	94.8	99.5	95.5	112	106	99.8	100	101	102
CCOC(=O)[C@@]1(CCCCCCOc2ccc(Cl)cc2)CO1 [Etomoxir]	< 0.0301	< 0.0301	< 0.0301	< 0.0301	105	99.6	105	93.3	84.5	104	112	116	101	78.9
Cc1c(-c2ccccc2)oc2c(C(=O)OCCN3CCCCC3)cccc2c1=O.Cl [Flavoxate]	< 0.0301	< 0.0301	< 0.0301	< 0.0301	91	105	107	95.3	100	94.6	93.2	102	95.6	87
O=C(O)CCc1ccc(NCc2cccc(Oc3ccccc3)c2)cc1 [GW9508]	< 0.0301	< 0.0301	< 0.0301	< 0.0301	112	105	101	109	104	101	89.5	89.6	102	93.4
c1ccc2c(c1)OCC(=C1NCCN1)O2 [Idazoxan]	< 0.0301	< 0.0301	< 0.0301	< 0.0301	96.4	112	85.6	95.1	90.4	105	104	78.6	91	87.4
O=C(O)c1nn(Cc2ccc(Cl)cc2Cl)c2ccccc12 [Lonidamine]	< 0.0301	< 0.0301	< 0.0301	< 0.0301	102	111	120	99.5	106	103	111	107	84	90.7
